The target of this assay is Trace amine-associated receptor 1 (Homo sapiens) (UniProt Q96RJ0). In words: activators of human TAAR1 signalling – cell-based, fluorescence, MedChem round 2, SAR follow-up (AID 1053181). The following applies: TAAR1-expressing cells, fluorescence agonist read-out.

The source made the active and inactive calls. How the calls were made is not given here.

Trace amine-associated receptor 1 (Homo sapiens), sequence (Q96RJ0 whole entry, looked up, the tested form may be a part): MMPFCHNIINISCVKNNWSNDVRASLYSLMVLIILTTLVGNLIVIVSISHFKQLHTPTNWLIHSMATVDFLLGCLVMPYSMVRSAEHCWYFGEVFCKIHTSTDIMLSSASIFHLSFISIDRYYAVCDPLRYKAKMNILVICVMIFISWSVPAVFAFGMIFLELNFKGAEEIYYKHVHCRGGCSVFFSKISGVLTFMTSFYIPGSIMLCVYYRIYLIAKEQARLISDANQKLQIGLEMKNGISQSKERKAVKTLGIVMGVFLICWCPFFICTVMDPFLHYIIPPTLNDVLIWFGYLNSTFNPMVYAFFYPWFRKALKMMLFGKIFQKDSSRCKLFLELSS

The term EC50 denotes the concentration that produces a half-maximal response. On to `CC(CN1CCCC1Cc1ccccc1)C(=O)c1ccc2c(c1)OCCO2` (configuration not stated), for which the concentration giving a half-maximal response (EC50) is 2960 nM.

On to `N#Cc1c(C(F)(F)F)cc(-c2ccc(Cl)cc2)nc1SCC(=O)N1CCCCCC1`, for which the EC50 was > 29900 nM (inactive). In the case of `Cc1ccc(C(=O)CCN2CCC(c3ccccc3)C2)cc1` (configuration not stated) it was 672 nM; in that of `N#Cc1c(C(F)(F)F)cc(-c2ccc(Cl)cc2)nc1SCC(=O)Nc1ncccn1`, 3.74 nM; in that of `N#Cc1c(C(F)(F)F)cc(-c2ccc(Cl)cc2)nc1SCC(=O)N1CCCC1`, 1070 nM. The same measure for `O=C(CCN1CCC(c2ccccc2)C1)c1ccccc1` (configuration not stated): 765 nM; for `COc1cc(C(=O)CCN2CCC(c3ccccc3)C2)cc(OC)c1OC` (configuration not stated): 419 nM.

For the origin of these results see PubChem BioAssay AID1053181 (The Scripps Research Institute Molecular Screening Center, 2014).
